Tests used:
Settings in all cases: recombinant enzyme
Cytochrome P450 3A4 = Cytochrome P450 3A4 (Homo sapiens, UniProt P08684); test: (§1) Drug activation in human Hep3B cells assessed as human CYP3A4-mediated drug metabolism-induced cytotoxicity measured as decrease in cell viability at 300 uM pre-incubated with BSO for 18 hrs followed by incubation with compound for 3 hrs in presence of NADPH measured after 24 hrs in absence of compound, CYP3A4 and NADPH by cell titer-glo luminescence assay relative to BSO alone
Cytochrome P450 2D6 = Cytochrome P450 2D6 (Homo sapiens, UniProt P10635); test: as §1, with “CYP2D6-mediated” for “CYP3A4-mediated”
Cytochrome P450 2C9 = Cytochrome P450 2C9 (Homo sapiens, UniProt P11712); test: as §1, with “CYP2C9-mediated” for “CYP3A4-mediated”
Cytochrome P450 2C9, sequence (P11712 whole entry): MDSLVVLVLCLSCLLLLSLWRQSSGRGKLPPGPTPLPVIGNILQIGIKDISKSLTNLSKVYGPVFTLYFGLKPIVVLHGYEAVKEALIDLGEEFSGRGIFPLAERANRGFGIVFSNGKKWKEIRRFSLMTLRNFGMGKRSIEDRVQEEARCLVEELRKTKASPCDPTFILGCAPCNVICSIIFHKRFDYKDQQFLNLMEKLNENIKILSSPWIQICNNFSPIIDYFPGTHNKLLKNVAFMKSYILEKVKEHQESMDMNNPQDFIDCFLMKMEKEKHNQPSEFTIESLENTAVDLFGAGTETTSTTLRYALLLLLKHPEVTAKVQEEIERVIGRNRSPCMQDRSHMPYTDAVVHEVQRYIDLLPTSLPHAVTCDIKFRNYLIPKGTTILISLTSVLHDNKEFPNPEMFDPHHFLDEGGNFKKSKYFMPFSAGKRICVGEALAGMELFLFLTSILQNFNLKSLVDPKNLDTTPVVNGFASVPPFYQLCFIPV

Cytochrome P450 3A4, sequence (P08684 whole entry): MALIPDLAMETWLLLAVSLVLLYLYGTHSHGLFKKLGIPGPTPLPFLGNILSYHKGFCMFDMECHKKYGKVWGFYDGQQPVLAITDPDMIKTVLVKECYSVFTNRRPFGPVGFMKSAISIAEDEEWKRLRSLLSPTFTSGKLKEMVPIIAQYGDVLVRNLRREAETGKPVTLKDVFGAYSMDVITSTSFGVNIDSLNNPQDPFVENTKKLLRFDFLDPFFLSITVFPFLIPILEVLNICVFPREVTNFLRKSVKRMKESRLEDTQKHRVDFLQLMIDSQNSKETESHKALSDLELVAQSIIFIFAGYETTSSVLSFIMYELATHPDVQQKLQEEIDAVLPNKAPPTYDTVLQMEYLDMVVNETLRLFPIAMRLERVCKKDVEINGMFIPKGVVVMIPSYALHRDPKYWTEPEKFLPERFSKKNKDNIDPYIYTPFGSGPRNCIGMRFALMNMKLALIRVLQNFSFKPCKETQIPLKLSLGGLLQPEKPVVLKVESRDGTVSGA
Cytochrome P450 2D6, sequence (P10635 whole entry): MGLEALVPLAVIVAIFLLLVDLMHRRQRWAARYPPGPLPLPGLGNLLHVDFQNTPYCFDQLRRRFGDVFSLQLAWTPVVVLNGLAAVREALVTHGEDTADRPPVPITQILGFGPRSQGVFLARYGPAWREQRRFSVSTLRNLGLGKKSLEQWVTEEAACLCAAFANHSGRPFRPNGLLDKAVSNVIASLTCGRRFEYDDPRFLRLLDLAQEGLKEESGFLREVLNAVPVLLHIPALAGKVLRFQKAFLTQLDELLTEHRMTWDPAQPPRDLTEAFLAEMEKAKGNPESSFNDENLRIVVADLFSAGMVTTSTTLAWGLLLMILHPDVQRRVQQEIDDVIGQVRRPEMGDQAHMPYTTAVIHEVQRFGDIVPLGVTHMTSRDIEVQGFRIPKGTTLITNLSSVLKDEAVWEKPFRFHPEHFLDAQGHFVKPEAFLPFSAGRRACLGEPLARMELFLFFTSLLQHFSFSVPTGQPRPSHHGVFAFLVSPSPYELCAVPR

Row | Compound | FC (Cytochrome P450 3A4) | FC (Cytochrome P450 2D6) | FC (Cytochrome P450 2C9)
1 | CCCCCCCCCCCCOS(=O)(=O)O.CC[C@H]1OC(=O)[C@H](C)[C@@H](O[C@H]2C[C@@](C)(OC)[C@@H](O)[C@H](C)O2)[C@H](C)[C@@H](O[C@@H]2O[C@H](C)C[C@H](N(C)C)[C@H]2O)[C@](C)(O)C[C@@H](C)C(=O)[C@H](C)[C@@H](O)[C@]1(C)O | 1 | 1 | 
2 | O=C(O)COc1ccc(C(=O)c2cccs2)c(Cl)c1Cl | 1 | 1 | 1
3 | Nc1nc(NC2CC2)c2ncn([C@H]3C=C[C@@H](CO)C3)c2n1 [ABACAVIR] | 1 | 1 | 1
4 | Nc1nc2c(ncn2COCCO)c(=O)[nH]1 [ACYCLOVIR] | 1 | 1 | 1
5 | CC(C)(C)NCC(O)c1ccc(O)c(CO)c1 (centres undefined) [ALBUTEROL] | 1 | 1 | 1
6 | Oc1ncnc2[nH]ncc12 [ALLOPURINOL] | 1 | 1 | 1
7 | COC(c1ccccc1)(c1ccccc1)[C@H](Oc1nc(C)cc(C)n1)C(=O)O [AMBRISENTAN] | 1 | 1 | 1
8 | O=C(O)CCCCCCNC1c2ccccc2CCc2ccccc21 [AMINEPTINE] | 1 | 1 | 1
9 | Nc1ccc(C(=O)O)c(O)c1 [AMINOSALICYLIC ACID] | 1 | 1 | 1
10 | CC1(C)S[C@@H]2[C@H](NC(=O)[C@H](N)c3ccc(O)cc3)C(=O)N2[C@H]1C(=O)O [AMOXICILLIN] | 1 | 1 | 1
11 | CC(=O)Oc1ccccc1C(=O)O [ASPIRIN] | 1 | 1 | 1
12 | CC(C(=O)O)c1ccc2oc(-c3ccc(Cl)cc3)nc2c1 (centres undefined) [BENOXAPROFEN] | 1 | 1 | 1
13 | C[N+](C)(C)CC(=O)O [BETAINE] | 1 | 1 | 1
14 | COc1ccccc1Oc1c(NS(=O)(=O)c2ccc(C(C)(C)C)cc2)nc(-c2ncccn2)nc1OCCO [BOSENTAN] | 1 | 1 | 1
15 | Nc1c(CC(=O)O)cccc1C(=O)c1ccc(Br)cc1 [BROMFENAC] | 1 | 1 | 1
16 | CC(NC(C)(C)C)C(=O)c1cccc(Cl)c1 (centres undefined) [BUPROPION] | 1 | 1 | 1
17 | CS(=O)(=O)OCCCCOS(C)(=O)=O [BUSULFAN] | 1 | 1 | 1
18 | C[C@H](CS)C(=O)N1CCC[C@H]1C(=O)O [CAPTOPRIL] | 1 | 1 | 1
19 | NC(=O)N1c2ccccc2C=Cc2ccccc21 [CARBAMAZEPINE] | 1 | 1 | 1
20 | C[C@@](Cc1ccc(O)c(O)c1)(NN)C(=O)O [CARBIDOPA ANHYDROUS] | 0.6 | 0.6 | 0.6
21 | CCCNC(=O)NS(=O)(=O)c1ccc(Cl)cc1 [CHLORPROPAMIDE] | 1 | 1 | 1

Row | Compound | FC (Cytochrome P450 3A4) | FC (Cytochrome P450 2D6) | FC (Cytochrome P450 2C9)
22 | O=C(O)c1cc(-c2ccccc2)nc2ccccc12 [CINCHOPHEN] | 1 | 1 | 1
23 | Clc1cccc(Cl)c1N=C1NCCN1 [CLONIDINE] | 1 | 1 | 1
24 | O=P1(N(CCCl)CCCl)NCCCO1 (centres undefined) [CYCLOPHOSPHAMIDE ANHYDROUS] | 1 | 1 | 1
25 | CN(C)/N=N/c1[nH]cnc1C(N)=O [DACARBAZINE] | 1 | 1 | 
26 | CC(=O)N(O)CCCCCNC(=O)CCC(=O)N(O)CCCCCNC(=O)CCC(=O)N(O)CCCCCN [DEFEROXAMINE] | 1 | 1 | 1
27 | O=c1[nH]cnc2c1ncn2[C@H]1CC[C@@H](CO)O1 [DIDANOSINE] | 1 | 1 | 1
28 | C[C@H]1O[C@@H](O[C@H]2[C@@H](O)C[C@H](O[C@H]3[C@@H](O)C[C@H](O[C@H]4CC[C@@]5(C)[C@H](CC[C@@H]6[C@@H]5C[C@@H](O)[C@]5(C)[C@@H](C7=CC(=O)OC7)CC[C@]65O)C4)O[C@@H]3C)O[C@@H]2C)C[C@H](O)[C@@H]1O [DIGOXIN] | 1 | 1 | 1
29 | COC(=O)CCc1ccc(OCC(O)CNC(C)C)cc1 (centres undefined) [ESMOLOL] | 1 | 1 | 1
30 | CC[C@@H](CO)NCCN[C@@H](CC)CO [ETHAMBUTOL] | 1 | 1 | 1
31 | CCc1cccc2c3c([nH]c12)C(CC)(CC(=O)O)OCC3 (centres undefined) [ETODOLAC] | 1 | 1 | 1
32 | CC(C(=O)O)c1ccc(-c2ccccc2)c(F)c1 (centres undefined) [FLURBIPROFEN] | 1 | 1 | 1
33 | Nc1nc2ncc(CNc3ccc(C(=O)N[C@@H](CCC(=O)O)C(=O)O)cc3)nc2c(=O)[nH]1 [FOLIC ACID] | 0.6 | 0.6 | 0.6
34 | Nc1nc(O)c2ncn(COC(CO)CO)c2n1 [GANCICLOVIR] | 1 | 1 | 1
35 | COC1=CC(=O)C[C@@H](C)[C@]12Oc1c(Cl)c(OC)cc(OC)c1C2=O [GRISEOFULVIN] | 1 | 1 | 1
36 | O=C(CCCN1CCC(O)(c2ccc(Cl)cc2)CC1)c1ccc(F)cc1 [HALOPERIDOL] | 1 | 1 | 1
37 | NNC(=O)c1ccncc1 [ISONIAZID] | 1 | 1 | 1
38 | NC[C@H]1O[C@H](O[C@H]2[C@H](O)[C@@H](O[C@H]3O[C@H](CO)[C@@H](O)[C@H](N)[C@H]3O)[C@H](N)C[C@@H]2N)[C@H](O)[C@@H](O)[C@@H]1O [KANAMYCIN] | 1 | 1 | 1
39 | Nc1ccn([C@@H]2CS[C@H](CO)O2)c(=O)n1 [LAMIVUDINE] | 1 | 1 | 1
40 | Cc1oncc1C(=O)Nc1ccc(C(F)(F)F)cc1 [LEFLUNOMIDE] | 1 | 1 | 
41 | Sc1ncnc2nc[nH]c12 [MERCAPTOPURINE ANHYDROUS] | 1 | 1 | 
42 | CC(C)NCC(O)c1cc(O)cc(O)c1 (centres undefined) [METAPROTERENOL] | 1 | 1 | 1

Row | Compound | FC (Cytochrome P450 3A4) | FC (Cytochrome P450 2D6) | FC (Cytochrome P450 2C9)
43 | CN(Cc1cnc2nc(N)nc(N)c2n1)c1ccc(C(=O)N[C@@H](CCC(=O)O)C(=O)O)cc1 [METHOTREXATE] | 1 | 1 | 
44 | COCCc1ccc(OCC(O)CNC(C)C)cc1 (centres undefined) [METOPROLOL] | 1 | 1 | 1
45 | Cc1cccc(C)c1OCC(C)N (centres undefined) [MEXILETINE] | 1 | 1 | 1
46 | CN(C)c1ccc(O)c2c1C[C@H]1C[C@H]3[C@H](N(C)C)C(O)=C(C(N)=O)C(=O)[C@@]3(O)C(O)=C1C2=O [MINOCYCLINE] | 1 | 1 | 1
47 | Cc1ccnc2c1NC(=O)c1cccnc1N2C1CC1 [NEVIRAPINE] | 1 | 1 | 1
48 | O=C(O)c1cccnc1 [NIACIN] | 1 | 1 | 
49 | CS(=O)(=O)Nc1ccc([N+](=O)[O-])cc1Oc1ccccc1 [NIMESULIDE] |  |  | 1
50 | CNC(=C[N+](=O)[O-])NCCSCc1csc(CN(C)C)n1 [NIZATIDINE] | 1 | 1 | 1
51 | CN1Cc2c(N)cccc2C(c2ccccc2)C1 (centres undefined) [NOMIFENSINE] | 0.3 | 0.3 | 0.3
52 | CCCCCCCCCCC[C@@H](C[C@@H]1OC(=O)[C@H]1CCCCCC)OC(=O)[C@H](CC(C)C)NC=O [ORLISTAT] | 1 | 1 | 1
53 | CCOC(=O)C1=C[C@@H](OC(CC)CC)[C@H](NC(C)=O)[C@@H](N)C1 [OSELTAMIVIR] | 1 | 1 | 1
54 | CCc1ccc(CCOc2ccc(CC3SC(=O)NC3=O)cc2)nc1 (centres undefined) [PIOGLITAZONE] | 1 | 1 | 1
55 | CC[C@H](C)C(=O)O[C@H]1C[C@H](O)C=C2C=C[C@H](C)[C@H](CC[C@@H](O)C[C@@H](O)CC(=O)O)[C@H]21 [PRAVASTATIN] | 1 | 1 | 1
56 | CCC1(c2ccccc2)C(=O)NCNC1=O [PRIMIDONE] | 1 | 1 | 1
57 | NC(=O)c1cnccn1 [PYRAZINAMIDE] | 1 | 1 | 1
58 | NC(=O)c1ncn([C@@H]2O[C@H](CO)[C@@H](O)[C@H]2O)n1 [RIBAVIRIN] | 1 | 1 | 
59 | Cc1cn([C@H]2C=C[C@@H](CO)O2)c(=O)[nH]c1=O [STAVUDINE] | 1 | 1 | 1
60 | [H]/N=C(/N)N[C@H]1[C@H](O)[C@@H](O)[C@H](O[C@@H]2O[C@@H](C)[C@](O)(C=O)[C@H]2O[C@@H]2O[C@@H](CO)[C@H](O)[C@@H](O)[C@@H]2NC)[C@@H](N/C(N)=N\[H])[C@@H]1O [STREPTOMYCIN] | 1 | 1 | 1
61 | CCOc1ccccc1OCCN[C@H](C)Cc1ccc(OC)c(S(N)(=O)=O)c1 [TAMSULOSIN] | 1 |  | 1
62 | CCCCNC(=O)NS(=O)(=O)c1ccc(C)cc1 [TOLBUTAMIDE] |  | 1 | 

— ChEMBL document CHEMBL4477225, “Development of a cell viability assay to assess drug metabolite structure-toxicity relationships” (Bioorg Med Chem Lett, 2016)
